The target in series [1] is T1, human progesterone receptor B (Homo sapiens, UniProt P06401).
T1 construct: expressed in transfected cells; host or cells: SK-N-MC human neuroblastoma cells, stably transfected
T1 sequence (P06401 1-933): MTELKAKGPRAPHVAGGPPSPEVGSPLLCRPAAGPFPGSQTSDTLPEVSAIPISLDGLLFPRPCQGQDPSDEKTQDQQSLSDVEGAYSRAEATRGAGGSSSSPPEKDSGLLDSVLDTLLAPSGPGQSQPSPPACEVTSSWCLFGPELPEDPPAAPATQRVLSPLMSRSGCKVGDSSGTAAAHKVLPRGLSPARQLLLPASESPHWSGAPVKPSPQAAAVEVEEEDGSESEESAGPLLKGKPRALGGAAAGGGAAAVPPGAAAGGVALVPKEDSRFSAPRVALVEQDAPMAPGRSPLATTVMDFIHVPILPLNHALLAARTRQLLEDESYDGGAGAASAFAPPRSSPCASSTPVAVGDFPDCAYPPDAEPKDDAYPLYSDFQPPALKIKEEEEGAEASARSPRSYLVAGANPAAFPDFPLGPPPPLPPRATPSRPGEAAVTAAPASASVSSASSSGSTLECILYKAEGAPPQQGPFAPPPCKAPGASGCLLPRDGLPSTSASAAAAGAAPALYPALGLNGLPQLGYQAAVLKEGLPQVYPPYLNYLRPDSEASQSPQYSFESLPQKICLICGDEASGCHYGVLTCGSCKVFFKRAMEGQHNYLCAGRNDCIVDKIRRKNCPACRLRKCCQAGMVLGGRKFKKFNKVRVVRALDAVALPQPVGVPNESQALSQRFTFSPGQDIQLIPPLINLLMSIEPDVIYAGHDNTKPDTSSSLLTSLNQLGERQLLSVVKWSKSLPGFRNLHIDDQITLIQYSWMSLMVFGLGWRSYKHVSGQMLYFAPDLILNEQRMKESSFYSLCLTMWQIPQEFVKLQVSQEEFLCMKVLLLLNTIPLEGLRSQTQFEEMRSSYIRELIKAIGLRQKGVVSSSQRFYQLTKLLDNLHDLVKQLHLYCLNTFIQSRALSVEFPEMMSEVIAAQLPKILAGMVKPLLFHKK
The series is described as follows: Progesterone-receptor-antagonistic action in stably transfected SK-N-MC cells, MTV-LUC reporter (PR-B). It counts as cell-based. The note with it: antagonistic potency vs 0.1 nmol/l promegestone, 24 hours, luciferase. How it is done: Progesterone-Receptor-Antagonistic Action in Stable Transfectants of Human Neuroblastoma Cells (SK-N-MC Cells) with the Human Progesterone A or Progesterone B Receptor and an MTV-LUC Reporter Construct
SK-N-MC cells (human neuroblastoma cells) that have been stably transfected with plasmids that express the human progesterone receptor B (pRChPR-B-neo) or the human progesterone receptor A (pRChPR-A-neo) and a reporter construct (pMMTV-LUC), were incubated for 24 hours either in the absence (negative control) or in the presence of increasing amounts of the particular test compound (0.01 nmol/l, 0.1 nmol/l, 1 nmol/l, 10 nmol/l, 100 nmol/l and 1 μmol/l), to determine the agonistic efficacy. As positive control of reporter gene induction, the cells were treated with the synthetic gestagen promegestone (0.01 nmol/l, 0.1 nmol/l, 1 nmol/l, 10 nmol/l, 100 nmol/l and 1 μmol/l). For determination of the antagonistic activity, the cells were treated with 0.1 nmol/l promegestone and additionally with increasing amounts of the particular test compound (0.01 nmol/l, 0.1 nmol/l, 1 nmol/l, 10 nmol/l, 100 nmol/l and 1 μmol/l). The activity of the reporter gene LUC (LUC=luciferase) was determined in the cell lysates and was measured as RLU (relative light units). All measured values are given as % efficacy and as EC50 or IC50 concentrations.

In series [2] the test system is pregnant rats. As to the kind of experiment: Test as abortifacient in female rats (termination of early pregnancy). The format is in vivo, rat. As to conditions: d5-d7 p.c., autopsy d9 p.c. The procedure: Test as Abortifacient in Female Rats
The antagonistic action of the compounds according to the invention was tested on pregnant rats (6 rats per group) on day 5 to 7 post coitum in conventional conditions of husbandry and feeding.
After successful mating, the pregnant animals (presence of sperm in the vaginal smear on day 1 of pregnancy=d1 p.c.) were randomized and were divided into the treatment group and the control group. The animals then received, subcutaneously or orally, in each case 0.15; 0.5; 1.5 or 5 mg/kg of the test compound or 1.0 ml/kg of vehicle (benzyl benzoate/castor oil: 1+4 [v/v]) daily from day 5 to day 7 (d5-d7 p.c.).
Autopsy was carried out on day 9 (d9 p.c.). For characterization of progesterone-receptor-antagonistic action, the uterus was investigated for the presence of nidation sites. Complete absence, but also the presence of pathological, haemorrhagic or otherwise abnormal nidation sites on day 9 (d9 p.c.) was assessed as abortion.

Series [3] is described as follows: Metabolic stability in human liver microsomes (HLM). It counts as in vitro ADME. As to conditions: from HLM half-life, well-stirred model, phase I reactions; 1 μM test compound. The procedure:
Metabolic stability of 4-[(11β,17β)-17-hydroxy-3-oxo-17-(pentafluoro-ethyl)estra-4,9-dien-11-yl]benzamide and 4′-[(11β,17β)-17-hydroxy-3-oxo-17-(pentafluoro-ethyl)estra-4,9-dien-11-yl]biphenyl-4-carboxamide in human liver microsomes (HLM) Isolated human liver microsomes (HLM) were used for assessing the metabolic stability of compounds of general formula I. The incubations were carried out with 2.4 ml HLM solution (0.5 mg/ml protein content), 30 μl of the test compound (final concentration 1 μM) and 0.6 ml of the cofactor mixture (=NADPH-generating system of 3 IU glucose-6-phosphate dehydrogenase, 14.6 mg glucose-6-phosphate, 1.2 mg NADP) at 37° C. in 100 mM phosphate buffer at pH 7.4. Samples are taken at 6 time points (2-60 min), precipitated with an equal volume of methanol, and the recovery of the test substances used in the supernatant is determined by LC-MS/MS analysis. The intrinsic clearance of the substance in the liver microsome assay can be calculated from the value found for the half-life of substance breakdown. Using this, on the basis of various physiological characteristics according to the well-stirred model it is possible to predict a (metabolic) in-vivo clearance with respect to phase I reactions.

Series [4] concerns the target T2, human progesterone receptor A (Homo sapiens, UniProt P06401).
T2 construct: expressed in transfected cells; host or cells: SK-N-MC human neuroblastoma cells, stably transfected
T2 sequence (P06401 1-769 isoform P06401-2): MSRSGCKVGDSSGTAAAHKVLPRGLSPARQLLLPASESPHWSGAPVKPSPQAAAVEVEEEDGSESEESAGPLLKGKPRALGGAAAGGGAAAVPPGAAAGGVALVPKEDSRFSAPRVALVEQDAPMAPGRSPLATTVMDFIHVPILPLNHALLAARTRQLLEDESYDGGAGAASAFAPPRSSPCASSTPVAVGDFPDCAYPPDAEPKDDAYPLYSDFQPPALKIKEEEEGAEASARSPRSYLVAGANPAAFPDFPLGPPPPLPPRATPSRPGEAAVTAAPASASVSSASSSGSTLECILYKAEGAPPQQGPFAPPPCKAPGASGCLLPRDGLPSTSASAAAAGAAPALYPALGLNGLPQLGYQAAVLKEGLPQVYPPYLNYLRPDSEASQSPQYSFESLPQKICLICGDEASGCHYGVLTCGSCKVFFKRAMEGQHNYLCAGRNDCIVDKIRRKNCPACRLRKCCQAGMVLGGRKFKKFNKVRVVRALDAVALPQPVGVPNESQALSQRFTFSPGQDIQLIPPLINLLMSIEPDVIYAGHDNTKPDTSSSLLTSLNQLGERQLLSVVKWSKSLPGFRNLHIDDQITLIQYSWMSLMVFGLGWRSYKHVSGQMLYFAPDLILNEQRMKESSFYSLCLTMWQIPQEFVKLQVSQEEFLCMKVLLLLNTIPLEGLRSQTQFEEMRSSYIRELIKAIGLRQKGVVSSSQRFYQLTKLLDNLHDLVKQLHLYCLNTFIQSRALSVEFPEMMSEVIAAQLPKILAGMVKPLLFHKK
The series is described as follows: Progesterone-receptor-antagonistic action in stably transfected SK-N-MC cells, MTV-LUC reporter (PR-A). The format is cell-based. As to conditions: antagonistic potency vs 0.1 nmol/l promegestone, 24 hours, luciferase. Summed up:
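SK-N-MC neuroblastoma cells stably expressing human PR-B or PR-A plus MMTV-LUC reporter, treated 24 h with 0.1 nmol/l promegestone plus test compound at 0.01 nmol/l–1 μmol/l. Luciferase in lysates read as RLU; values as % efficacy and IC50.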

The structures appear in SMILES notation. pIC50: −log10 of the molar value.

As usually defined, the pIC50 is −log10 of the IC50, conventionally taken in molar units. A higher pIC50 goes with a small IC50. `C[C@]12C[C@H](c3ccc(C(N)=O)cc3)C3=C4CCC(=O)C=C4CC[C@H]3[C@@H]1CC[C@@]2(O)C(F)(F)C(F)(F)F` [Example 1, 4-[(11β,17β)-17-Hydroxy-3-oxo-17-(pentafluoroethyl)estra-4,9-dien-11-yl]benzamide]: in series [1], the pIC50 was 9.05. For the same molecule, the Abortion rate in series [2] (daily dose 0.5 mg/kg p.o.) was 0%; in series [2] (daily dose 1.5 mg/kg p.o.) it was 50%; in series [2] (daily dose 5.0 mg/kg p.o.) it was 100%. For the same molecule, the “(metabolic) in-vivo clearance in humans predicted” value in series [3] was 5.5 mL/min/kg.

On to `C[C@]12C[C@H](c3ccc(C(=O)N4CCNCC4)cc3)C3=C4CCC(=O)C=C4CC[C@H]3[C@@H]1CC[C@@]2(O)C(F)(F)C(F)(F)F` [Example 73, (11β,17β)-17-Hydroxy-17-(pentafluoroethyl)-11-[4-(piperazin-1-ylcarbonyl)phenyl]estra-4,9-dien-3-one], for which the negative-log IC50 (pIC50) in series [4] is 7.33; in series [1], 6.92.

With `CC(=O)N1CCN(C(=O)c2ccc([C@H]3C[C@@]4(C)[C@@H](CC[C@@]4(O)C(F)(F)C(F)(F)F)[C@@H]4CCC5=CC(=O)CCC5=C43)cc2)CC1` [Example 74, (11β,17β)-11-{4-[(4-Acetylpiperazin-1-yl)carbonyl]phenyl}-17-hydroxy-17-(pentafluoroethyl)estra-4,9-dien-3-one], the pIC50 in series [4] is 8.17; in series [1], 7.92.

For `C[C@]12C[C@H](c3ccc(C(=O)N4CCC(C(=O)O)CC4)cc3)C3=C4CCC(=O)C=C4CC[C@H]3[C@@H]1CC[C@@]2(O)C(F)(F)C(F)(F)F` [Example 75, 1-{4-[(11β,17β)-17-Hydroxy-3-oxo-17-(pentafluoroethyl)estra-4,9-dien-11-yl]benzoyl}piperidine-4-carboxylic acid], the results for the pIC50 in series [4] and in series [1] were 7.64 and 8.00, respectively.

Source of the values: patent US9109004B2, “Progesterone receptor antagonists” (Bayer Intellectual Property GmbH, priority 2010, dated 2015).
